Data from ChEMBL document CHEMBL4665725, “Identification of potent inhibitors of the sortilin-progranulin interaction” (Bioorg Med Chem Lett, 2020).
Values after ≈ are worked out from the molar mass of the structure shown.

Tests used:
[1] = molecular target: T1, Sortilin/Progranulin (Homo sapiens, UniProt P28799+Q99523); assay: Inhibition of SORT1 (unknown origin)-GRN (unknown origin) protein-protein interaction by HTRF assay
T1 sequence (Q99523 whole entry): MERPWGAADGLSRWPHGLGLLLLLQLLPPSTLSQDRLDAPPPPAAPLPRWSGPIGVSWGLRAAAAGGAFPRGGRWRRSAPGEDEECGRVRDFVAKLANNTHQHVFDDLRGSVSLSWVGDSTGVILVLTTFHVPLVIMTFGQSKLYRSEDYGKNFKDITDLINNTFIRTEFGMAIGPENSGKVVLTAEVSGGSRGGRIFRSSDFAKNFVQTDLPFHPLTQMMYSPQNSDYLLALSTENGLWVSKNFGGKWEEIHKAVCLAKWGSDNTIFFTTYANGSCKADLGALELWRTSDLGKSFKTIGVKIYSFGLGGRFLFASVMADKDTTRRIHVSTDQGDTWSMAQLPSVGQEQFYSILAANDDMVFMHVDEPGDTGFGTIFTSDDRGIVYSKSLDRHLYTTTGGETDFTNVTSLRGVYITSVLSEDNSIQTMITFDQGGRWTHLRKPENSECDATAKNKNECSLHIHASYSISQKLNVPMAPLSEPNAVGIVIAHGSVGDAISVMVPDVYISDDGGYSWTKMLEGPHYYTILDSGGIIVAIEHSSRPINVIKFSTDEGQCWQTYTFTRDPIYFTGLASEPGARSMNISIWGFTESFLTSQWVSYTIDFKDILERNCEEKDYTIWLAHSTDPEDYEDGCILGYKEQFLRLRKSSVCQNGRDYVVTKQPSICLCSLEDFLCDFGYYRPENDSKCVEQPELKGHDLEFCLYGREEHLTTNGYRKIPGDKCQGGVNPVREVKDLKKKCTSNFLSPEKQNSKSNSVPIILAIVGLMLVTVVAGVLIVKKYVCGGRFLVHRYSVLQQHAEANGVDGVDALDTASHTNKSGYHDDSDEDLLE
T1 sequence (P28799 whole entry): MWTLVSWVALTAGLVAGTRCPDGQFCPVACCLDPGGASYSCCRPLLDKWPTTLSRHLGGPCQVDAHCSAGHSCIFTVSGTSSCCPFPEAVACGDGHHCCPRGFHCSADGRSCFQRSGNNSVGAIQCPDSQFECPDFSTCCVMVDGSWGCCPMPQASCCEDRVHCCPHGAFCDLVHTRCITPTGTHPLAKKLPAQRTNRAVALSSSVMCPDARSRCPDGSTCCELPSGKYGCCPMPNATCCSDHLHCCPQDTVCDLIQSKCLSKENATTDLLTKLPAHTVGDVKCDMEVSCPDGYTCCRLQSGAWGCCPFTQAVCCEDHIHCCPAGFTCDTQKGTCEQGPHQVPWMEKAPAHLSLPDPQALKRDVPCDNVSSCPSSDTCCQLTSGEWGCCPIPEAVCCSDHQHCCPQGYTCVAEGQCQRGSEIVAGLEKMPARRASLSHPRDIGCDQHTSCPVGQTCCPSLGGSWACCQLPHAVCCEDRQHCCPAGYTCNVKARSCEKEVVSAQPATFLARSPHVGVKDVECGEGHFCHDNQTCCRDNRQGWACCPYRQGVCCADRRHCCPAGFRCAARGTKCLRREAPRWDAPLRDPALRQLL

[2] = Protein binding in rat plasma; assay type: ADME, cell-free; conditions: read-out: PPB (converted)
[3] = Half life in rat; assay type: ADME; conditions: in vivo
[4] = Unbound clearance in rat; assay type: ADME; conditions: in vivo
[5] = Apparent permeability of the compound; assay type: ADME; conditions: not told
[6] = Oral bioavailability in rat; assay type: ADME, organism-based; conditions: in vivo
[7] = Solubility of the compound at pH 2; assay type: physicochemical; conditions: buffer
[8] = Solubility of the compound at pH 7; assay type: physicochemical; conditions: buffer
[9] = system: P-gp; assay: Substrate activity at human P-gp in MDR1 cells assessed as efflux ratio; assay type: ADME, cell-based
[10] = molecular target: T1, Sortilin/Progranulin; assay: Inhibition of SORT1 (unknown origin)-GRN (unknown origin) protein-protein interaction assessed as increase in progranulin level by cell-based ELISA
[11] = Clearance in rat; assay type: ADME; conditions: in vivo
[12] = system: P-gp; assay: Substrate activity at rat P-gp assessed as efflux ratio; assay type: ADME; conditions: not told

Compound	IC50 [1]	other results
COc1cccc(C(=O)N[C@@H](CC(C)C)C(=O)O)c1	6.8 µM	
Cn1nc(C(C)(C)C)cc1C(=O)O	8.3 µM	
CC(C)C[C@H](NC(=O)C1CCCC1)C(=O)O	25.3 µM	
CC(C)C[C@H](NC(=O)c1cnc2ccccc2n1)C(=O)O	6.3 µM	
CC(C)(C)CC[C@H](NC(=O)c1cc(Cl)cc(Cl)c1)C(=O)O	0.17 µM	fraction unbound [2]: 0.0028; half-life [3]: 5.9 h; CL free [4]: 215 mL/min/kg; Papp [5]: 23 ×10⁻⁶ cm/s; bioavailability [6]: 100%; solubility [7]: 69 µM (≈ 22.9 µg/mL); solubility [8]: 134 µM (≈ 44.5 µg/mL); efflux ratio [9]: 1.8; IC50 [10]: 0.65 µM; clearance [11]: 0.6 mL/min/kg; efflux ratio [12]: 3.9
C=C(C)C[C@H](NC(=O)c1cc(Cl)cc(Cl)c1)C(=O)O	17.1 µM	
CC(C)C[C@H](NC(=O)C1CN(Cc2cc(Cl)cc(Cl)c2)CCO1)C(=O)O (stereo not given in full)	14.4 µM	
CC(C)(C)c1cc(C(=O)O)n(-c2ccccc2)n1	7.8 µM	
O=C(N[C@@H](CC12CC(C1)C2)C(=O)O)c1cc(Cl)cc(Cl)c1	18 µM	
CC(C)(C)CCc1cc(C(=O)O)n(Cc2ccccc2)n1	> 67 µM	
CC(C)(C)c1cc(C(=O)O)n(Cc2ccccc2)n1	2 µM	
CC(C)(C)OC[C@H](NC(=O)c1cc(Cl)cc(Cl)c1)C(=O)O	1.5 µM	
CC(C)(C)CC[C@H](NC(=O)c1cc(Cl)c[nH]1)C(=O)O	0.09 µM	fraction unbound [2]: 0.0216; half-life [3]: 1.5 h; CL free [4]: 134 mL/min/kg; Papp [5]: 4.8 ×10⁻⁶ cm/s; solubility [7]: 123 µM (≈ 35.3 µg/mL); solubility [8]: 135 µM (≈ 38.7 µg/mL); efflux ratio [9]: 2; IC50 [10]: 0.29 µM; clearance [11]: 2.8 mL/min/kg; efflux ratio [12]: 1.3
CC(C)(C)C[C@H](NC(=O)c1ccc(Oc2ccccc2)nc1)C(=O)O	0.065 µM	
CC(C)c1cc(C(=O)O)n(CCc2ccccc2)n1	> 67 µM	
CC(C)(C)CC[C@H](NC(=O)c1ccc(Oc2ccccc2)nc1)C(=O)O	0.02 µM	fraction unbound [2]: 0.0077; half-life [3]: 1.6 h; CL free [4]: 453 mL/min/kg; Papp [5]: 7 ×10⁻⁶ cm/s; solubility [7]: 126 µM (≈ 44.9 µg/mL); solubility [8]: 147 µM (≈ 52.4 µg/mL); efflux ratio [9]: 2.2; IC50 [10]: 0.12 µM; clearance [11]: 3.35 mL/min/kg; efflux ratio [12]: 3.5
CC(C)(C)c1cc(C(=O)O)n(CCc2ccccc2)n1	5.3 µM	

Compound	IC50 [1]	other results
O=C(N[C@@H](Cc1ccccc1)C(=O)O)c1cc(Cl)cc(Cl)c1	> 67 µM	
O=C(N[C@@H](CC1CCCCC1)C(=O)O)c1cc(Cl)cc(Cl)c1	2.3 µM	
CC(OC(C)(C)C)[C@H](NC(=O)c1cc(Cl)cc(Cl)c1)C(=O)O (stereo not given in full)	> 67 µM	
CC(C)C[C@H](NC(=O)c1cccc(Cl)c1)C(=O)O	4.5 µM	
O=C(N[C@@H](CC1CC1)C(=O)O)c1cc(Cl)cc(Cl)c1	10.7 µM	
CC(C)(C)C[C@H](NC(=O)c1cc(Cl)cc(Cl)c1)C(=O)O	0.35 µM	
CC(C)C[C@H](NC(=O)C(C)(C)Cc1ccc(Cl)cc1)C(=O)O	6.8 µM	
CC(C)C[C@H](NC(=O)c1cnn(C)c1)C(=O)O	5.3 µM	
CC(C)(C)c1cc(C(=O)O)n(Cc2ccc(Oc3ccccc3)nc2)n1	2.1 µM	
CC(C)(C)c1cc(C(=O)O)n(Cc2cc(Cl)cc(Cl)c2)n1	2.1 µM	
CC(C)C[C@H](NC(=O)c1ccc(Cl)c(Cl)c1)C(=O)O	4.3 µM	
CC(C)C[C@H](NC(=O)c1cc(Cl)cc(Cl)c1)C(=O)O	2.7 µM	
CC(C)(C)c1cc(C(=O)O)n(Cc2ccc(-n3cccn3)nc2)n1	3 µM	
CC(C)C[C@H](NC(c1cc(Cl)cc(Cl)c1)C(F)(F)F)C(=O)O (stereo not given in full)	10.8 µM	
CC(C)(C)c1cc(C(=O)O)n(Cc2nnc(-c3ccccc3)o2)n1	0.49 µM	
CC(C)(C)Cc1cc(C(=O)O)n(Cc2ccccc2)n1	6.6 µM	
CC(C)(C)CC(NC(=O)c1cc(Cl)cc(Cl)c1)c1nn[nH]n1 (racemic)	6.9 µM	
